According to ChEMBL document CHEMBL5550211 (J Med Chem, 2024):

Experiments:
[1] = biological target: T1, Serine/threonine-protein kinase B-raf (Homo sapiens, UniProt P15056, V600E); assay: Inhibition of BRAF V600E mutant in human A-375 cells assessed as reduction in ERK phosphorylation; type: cell-based
[2] = Substrate activity at P-gp in LLC-PK1 cells assessed as efflux ratio of apparent permeability from basolateral to apical side over apical to basolateral side; type: ADME, cell-based, Sus scrofa; conditions: pig
[3] = Substrate activity at BCRP in LLC-PK1 cells assessed as efflux ratio of apparent permeability from basolateral to apical side over apical to basolateral side; type: ADME, cell-based, Sus scrofa; conditions: pig
[4] = biological target: T1, Serine/threonine-protein kinase B-raf; assay: Inhibition of 6-His tagged BRAF V600E mutant (445 to 723 residues) (unknown origin)
[5] = Apparent permeability across apical to basolateral side in LLC-PK1 cells; type: ADME, cell-based, Sus scrofa; conditions: pig

T1 sequence (P15056 2-766 V600E limits assumed): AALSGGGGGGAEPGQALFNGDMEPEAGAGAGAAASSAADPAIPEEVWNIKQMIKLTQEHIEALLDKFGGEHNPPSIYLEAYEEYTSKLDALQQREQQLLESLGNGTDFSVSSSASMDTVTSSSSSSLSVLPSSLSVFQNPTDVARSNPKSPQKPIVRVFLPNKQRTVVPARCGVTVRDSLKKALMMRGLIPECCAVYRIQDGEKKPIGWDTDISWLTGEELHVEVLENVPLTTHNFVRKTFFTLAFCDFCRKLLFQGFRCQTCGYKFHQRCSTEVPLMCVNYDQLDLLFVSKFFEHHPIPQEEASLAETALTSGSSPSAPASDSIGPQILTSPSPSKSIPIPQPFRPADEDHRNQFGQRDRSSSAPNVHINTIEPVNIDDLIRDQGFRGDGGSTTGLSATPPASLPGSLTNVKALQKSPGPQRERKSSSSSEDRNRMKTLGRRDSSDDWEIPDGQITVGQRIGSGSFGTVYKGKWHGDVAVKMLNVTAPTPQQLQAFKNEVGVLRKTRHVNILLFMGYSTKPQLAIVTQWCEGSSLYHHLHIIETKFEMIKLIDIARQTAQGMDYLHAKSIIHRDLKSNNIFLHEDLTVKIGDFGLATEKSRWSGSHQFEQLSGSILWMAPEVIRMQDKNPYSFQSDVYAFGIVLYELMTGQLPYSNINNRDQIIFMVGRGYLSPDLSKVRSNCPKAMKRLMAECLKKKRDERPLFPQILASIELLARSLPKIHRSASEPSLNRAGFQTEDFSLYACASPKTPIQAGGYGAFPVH

Row | Compound | IC50 [1] | Ratio [2] | Ratio [3] | IC50 [4] | Papp A→B [5]
1 | CCCS(=O)(=O)Nc1ccc(F)c(Nc2ccc3ncn(C)c(=O)c3c2)c1Cl | 27.3 nM | 4.1 | 6 | 13.8 nM | 39 ×10⁻⁶ cm/s
2 | CCCS(=O)(=O)Nc1ccc(F)c(Nc2ccc3ncn(CC)c(=O)c3c2C)c1Cl | 27 nM | 0.9 | 0.9 | 3.61 nM | 30 ×10⁻⁶ cm/s
